Experimental data from US20240216325A1, “NUCLEAR FACTOR KAPPA B PATHWAY INHIBITION TO ARREST CALCIFIC AORTIC STENOSIS” (CORNELL UNIVERSITY, priority 2019, published 2024).

What was measured:
Porcine aortic VEC = experiment: VEC on 3D collagen hydrogels, calcification by Alizarin Red S staining and dye extraction; assay type: cell-based; settings: OGM+TNFα 30 ng/mL, 14 days
Description: Primary Aortic Valve Cell Isolation and Culture. Porcine valves are a widely used analog for human adult valve endothelial and interstitial cells. Unlike mice, pigs develop atherosclerosis and valvular lesions without intervention, similar to humans. Large-scale culture of porcine valve cell populations is feasible due to ample tissue size/cell dissociation yields. […] Only VEC cultures with consistent CD31 and VE-cadherin (vascular endothelial cadherin) expression, cobblestone morphology, and nondetectable αSMA (alphasmooth muscle actin) expression were used. αSMA levels were measured via RT-PCR (>37 cycle threshold), Western blot, and immunofluorescence.
All reagents were obtained from Sigma Aldrich, St. Louis, MO, unless otherwise noted. […]
Hydrogel Calcification Analysis. To quantify calcified matrix developed in different experimental conditions, an Alizarin Red absorbance assay was implemented. […] The concentration of dye in solution was then quantified using absorbance spectroscopy at 405-nm wavelength. Samples absorbance readings were normalized to basal growth medium culture condition.

NFκB p65 = experiment: p65 nuclear localization in VEC on 3D hydrogels (immunofluorescence); assay type: cell-based, porcine; settings: 48 hour, OGM alone insufficient
Description: White arrows indicate cells with nuclear-positive signal. Scale bar is 20 μm. […] Asterisks indicate statistically significant groups (*: p<0.05).
3D Hydrogel Culture Model Preparation. Cellularized type II collagen hydrogels were prepared as previously described (Butcher et al., “Valvular Endothelial Cells Regulate the Phenotype of Interstitial Cells in Co-Culture: Effects of Steady Shear Stress,” Tissue Eng. 12:905-915 (2006), which is hereby incorporated by reference in its entirety)). Briefly, porcine aortic valve endothelial cells were topically seeded at 50,000 cell/cm^2 density, whereas porcine aortic valve interstitial cells were encapsulated within the neutralized collagen gel suspension (2 mg/mL) at 1,000,000 cells/mL density. Constructs were allowed to gel for 1 hour at 37° C., 5% CO2, and then cultured overnight in their respective basal-medium conditions. For osteogenic differentiation conditions, basal-medium was supplemented with 10 mmol/L β-glycerophosphate, 50 μg/mL 1-ascorbic acid, and 100 nM dexamethasone, as previously described (Richards et al., “Side-Specific Endothelial-Dependent Regulation of Aortic Valve Calcification: Interplay of Hemodynamics and Nitric Oxide Signaling,” Am J Pathol. 182:1922-1931 (2013), which is hereby incorporated by reference in its entirety). […]

[1] = test system: valve endothelial cells (VEC); experiment: EndMT in VEC: VE-cadherin, αSMA, SNAI1 by RT-PCR and immunofluorescence; assay type: cell-based, porcine; settings: GM+TNFα 30 ng/mL, 48 h
Description: Scale bar is 20 μm. […] Scale bar is […]. […] Arrows indicate cells coexpressing CD31 and αSMA. Scale bar is 100 μm. […] Asterisks indicate β-gal-positive cells in interstitial space. Scale bar is […]. CTL indicates control; GM, basal growth medium; and LDLR, low-density lipoprotein receptor.
3D Hydrogel Culture Model Preparation. Cellularized type II collagen hydrogels were prepared as previously described (Butcher et al., “Valvular Endothelial Cells Regulate the Phenotype of Interstitial Cells in Co-Culture: Effects of Steady Shear Stress,” Tissue Eng. 12:905-915 (2006), which is hereby incorporated by reference in its entirety)). Briefly, porcine aortic valve endothelial cells were topically seeded at 50,000 cell/cm^2 density, whereas porcine aortic valve interstitial cells were encapsulated within the neutralized collagen gel suspension (2 mg/mL) at 1,000,000 cells/mL density. Constructs were allowed to gel for 1 hour at 37° C., 5% CO2, and then cultured overnight in their respective basal-medium conditions. For osteogenic differentiation conditions, basal-medium was supplemented with 10 mmol/L β-glycerophosphate, 50 μg/mL 1-ascorbic acid, and 100 nM dexamethasone, as previously described (Richards et al., “Side-Specific Endothelial-Dependent Regulation of Aortic Valve Calcification: Interplay of Hemodynamics and Nitric Oxide Signaling,” Am J Pathol. 182:1922-1931 (2013), which is hereby incorporated by reference in its entirety). For exogenous TNFα administration, recombinant human TNFα was added to appropriate media condition before administration at 30 ng/mL.
Quantitative Real-Time Polymerase Chain Reaction. Total RNA was extracted using a RNeasy total RNA purification kit (Qiagen, Valencia, CA), and RNA was reverse transcribed to cDNA using the iScript cDNA synthesis kit (Bio-Rad, Hercules, CA). Quantitative RT-PCR was performed on all samples using SYBR Green PCR master mix (Applied Biosystems, Foster City, CA) and a CFX96 or MiniOpticon Real-Time PCR Detection System (Bio-Rad, Hercules, CA). Samples amplifying at >37 cycles were considered nondetectable.
For in vitro cultures, intact collagen gels were rinsed twice in PBS and fixed in 4% paraformaldehyde for 1 hour at 25° C. Samples were rinsed 3× on a rocker with PBS for 15 minutes each, permeabilized with 0.2% Triton-X (VWR International, West Chester, PA) for 10 minutes on rocker, and blocked in 10% goat serum for 1 hour at 25° C.

[2] = test system: LDLR−/− mice, a CAVD mouse model; experiment: Echocardiography (pulsed-wave Doppler) of heart valve function in CAVD mouse model; assay type: in vivo
Description: Animals. Mouse experiments were performed according to the guidelines of the National Institute of Health and the protocols approved by the Institutional Animal Care and Use Committee of Cornell University. The mice used were LDLR (low-density lipoprotein receptor)-/- mice from Jackson Labs (No. 2270). Mice were fed a high-fat diet (Harlan Teklad No. TD88137, 42% of calories from fat, 0.25% cholesterol). Age-matched C57BL6J mice were obtained from Jackson Laboratories (Bar Harbour, ME) for control study. Drug administration. The NFκB pathway was intervened by administering either BAY11-7082 (injected intraperitoneal 3 times per week at 5 mg/kg) or tetrahydrobiopterin (BH4) (oral gavage at 10 mg/kg/day) to LDLR/mice, for 8 weeks after giving them high fat diet for 20 weeks Echocardiography. Transthoracic echocardiography was performed under 2% isofluorane anaesthesia, with M[…] and MS5[…] probes connected to a Vevo 2100 system (VisualSonics). Heart valve function was assessed at 6 months and 8 months of age using according to established procedures. Mice were anesthetized using inhaled 2% isoflurane. Abdominal hair was removed using a chemical depilatory cream, and warmed ultrasound transmission gel was applied to the anterior thorax. Probes were applied in the long-axis and short-axis position to the chest. Transvalvular velocity and pressure gradients were captured using the pulsed-wave Doppler mode and manual tracing of >3 velocity time intervals on the resulting plots. In this work, the NFkB pathway was intervened by administering either BAY11-7082 (injected intraperitoneal 3 times per week at 5 mg/kg) or tetrahydrobiopterin (BH4) (oral gavage at 10 mg/kg/day) to LDLR^-/- mice, a CAVD mouse model, for another 8 weeks after starting them on high fat diet for 20 weeks (FIGS. 17A-17C). Cardiac hemodynamic parameters, such as aortic valve peak velocity and left ventricle ejection fraction, were measured using doppler ultrasound before and after BAYT 1-7082 and BH4 administration. […]

[3] = test system: LDLR−/− mice, a CAVD mouse model; experiment: Alizarin red staining for calcium contents on the aortic valves; assay type: in vivo; settings: 8 weeks treatment after 20 weeks high fat diet
Description: Animals. Mouse experiments were performed according to the guidelines of the National Institute of Health and the protocols approved by the Institutional Animal Care and Use Committee of Cornell University. The mice used were LDLR (low-density lipoprotein receptor)−/− mice from Jackson Labs (No. 2270). Mice were fed a high-fat diet (Harlan Teklad No. TD88137, 42% of calories from fat, 0.25% cholesterol). Age-matched C57BL6J mice were obtained from Jackson Laboratories (Bar Harbour, ME) for control study. Drug administration. The NFκB pathway was intervened by administering either BAY11-7082 (injected intraperitoneal 3 times per week at 5 mg/kg) or tetrahydrobiopterin (BH4) (oral gavage at 10 mg/kg/day) to LDLR/mice, for 8 weeks after giving them high fat diet for 20 weeks Tissue staining and immunohistochemistry. Mouse hearts were isolated, perfused, fixed, embedded in paraffin, sectioned, and mounted. Alizarin red staining (ARS). Sections were deparaffinized and incubated in ARS stain for 5 minutes (1% Alizarin red in water, pH 4.2 adjusted by using 10% ammonium hydroxide in water). Sections were incubated in acetone for 30 seconds and then rinsed with a 1:1 solution of acetone and xylene. […] Cardiac hemodynamic parameters, such as aortic valve peak velocity and left ventricle ejection fraction, were measured using doppler ultrasound before and after BAYT 1-7082 and BH4 administration. […]

[4] = test system: LDLR−/− mice, a CAVD mouse model; experiment: Fibro-osteogenic gene profiling (Q-PCR) on aortic valve tissues; assay type: in vivo; settings: 8 weeks treatment after 20 weeks high fat diet
Description: Animals. Mouse experiments were performed according to the guidelines of the National Institute of Health and the protocols approved by the Institutional Animal Care and Use Committee of Cornell University. The mice used were LDLR (low-density lipoprotein receptor)−/− mice from Jackson Labs (No. 2270). Mice were fed a high-fat diet (Harlan Teklad No. TD88137, 42% of calories from fat, 0.25% cholesterol). Age-matched C57BL6J mice were obtained from Jackson Laboratories (Bar Harbour, ME) for control study. Drug administration. The NFκB pathway was intervened by administering either BAY11-7082 (injected intraperitoneal 3 times per week at 5 mg/kg) or tetrahydrobiopterin (BH4) (oral gavage at 10 mg/kg/day) to LDLR/mice, for 8 weeks after giving them high fat diet for 20 weeks Q-PCR analysis. Mouse Aortic valve samples were homogenized, total RNA was isolated using Takarabio RNA, purified and further quantified via Nanodrop. […] Quantitative RT-PCR was performed on all samples using SYBR Green PCR master mix (Applied Biosystems, Foster City, CA) and a CFX96 or MiniOpticon Real-Time PCR Detection System (Bio-Rad, Hercules, CA). […] Cardiac hemodynamic parameters, such as aortic valve peak velocity and left ventricle ejection fraction, were measured using doppler ultrasound before and after BAYT 1-7082 and BH4 administration. […]

[5] = test system: NFκB canonical signaling activity; settings: acute cardiovascular injury, literature; cited from earlier work
RANKL = target: T1, RANKL (Mus musculus, UniProt O35235); settings: literature (Weiss et al. 2013); cited from earlier work
T1 construct: host or cells: hypercholesterolemic mice (in vivo, endogenous protein)
T1 sequence (O35235 1-316): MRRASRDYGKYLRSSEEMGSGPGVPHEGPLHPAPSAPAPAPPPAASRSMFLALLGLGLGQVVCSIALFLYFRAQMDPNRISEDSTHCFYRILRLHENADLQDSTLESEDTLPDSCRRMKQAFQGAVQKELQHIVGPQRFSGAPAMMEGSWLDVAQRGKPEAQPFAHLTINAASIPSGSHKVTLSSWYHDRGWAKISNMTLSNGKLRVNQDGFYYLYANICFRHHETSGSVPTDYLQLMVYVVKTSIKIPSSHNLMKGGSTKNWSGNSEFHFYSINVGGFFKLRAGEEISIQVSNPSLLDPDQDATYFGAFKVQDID

[6] = LDLR−/− mice on high fat diet, treatment from 6 months, read at 8 months, vs control LDLR−/− given 10% DMSO/PBS

Compound: TNFα
- calcium deposition (ARS) (Porcine aortic VEC): significantly increased
- p65 nuclear localization (NFκB p65): required to induce p65 nuclear localization
- EndMT induction [1]: induced EndMT
- SNAI1 gene expression [1]: significantly increased
- VE-cadherin gene expression (CDH5) [1]: reduction in gene expression
- αSMA expression [1]: increased

Compound: Cc1ccc(S(=O)(=O)/C=C/C#N)cc1 [BAY11-7082]
- aortic valve peak velocity [2, 6]: lessened increase
- ejection fraction velocity ratio (EFVR) [2, 6]: lessened
- hemodynamic effect by sex ([2]; female vs male LDLR−/− mice, 8 weeks treatment): significantly affected both female and male mice
- calcium deposition on the aortic valves (Alizarin red staining) [3]: less calcium deposition
- collagen type 1A (Col1A) mRNA expression in aortic valve tissue [4]: significantly decreased
- intercellular adhesion molecule 1 (ICAM1) mRNA expression in aortic valve tissue [4]: significantly decreased
- treatment of septic shock or ischemic reperfusion injury [5]: effective

Compound: osteoprotegerin: decoy receptor for RANKL
- CAVD calcification (RANKL): mitigates CAVD calcification
